{"source": "patent US20250270170A1", "about": "“2,3-DIMETHOXY-5-METHYL-1,4-BENZOQUINONE ALKYL ALCOHOL DERIVATIVE AND USE THEREOF” (BEIJING ANJIANXI BIO-MEDICAL TECHNOLOGY CO., LTD., priority 2021, published 2025)", "key": {"[1]": {"test_system": "human gastric cancer NCI-N87 transplanted tumor", "test": "Example 3: tumor growth in NCI-N87 transplanted tumor model in nude mice", "format": "in vivo, BALB/c nude mice", "conditions": "DDP 4/4/5/5 mg/kg i.p. QW×4", "experimental": "Female BALB/c nude mice (age: 6 to 7 weeks) were purchased from Beijing Vital River Laboratory Animal Technology Co., Ltd. The mice were raised in an SPF animal room at a temperature of 20 to 25° C., a relative humidity of 40% to 70%, and a cycle of 12 hours of light and 12 hours of dark. The animals had free access to water and food. After about 1 week of normal feeding, mice with good physical condition after the veterinary examination were selected for this assay. Before grouping, a marker was used to mark on the base of the animals' tail. After grouping, each animal was marked with an ear cutout.\nThe solution was prepared before each administration. An appropriate amount of DDP was weighed and put into a glass bottle. Then, an appropriate volume of physiological saline was added to the bottle, and vortexed (may be heated in a water bath to 50 to 60° C.) to completely dissolve the drug.\nAn appropriate amount of the compound was weighed and added to an appropriate volume of dimethylacetamide (DMA). The mixture was vortexed to prepare a stock solution (8 mg·mL^−1). The stock solution was prepared once a week, divided into packages and then stored in a 2 to 8° C. refrigerator. One tube was taken out before each administration, and an appropriate volume of 30% Solutol and PEG400 was added while vortexing. The mixture was vortexed and mixed well. Then, an appropriate volume of physiological saline was added, and mixed well to give an administration formulation with a concentration of 0.4 mg·mL^−1, in which the volume ratio of DMA: 30% Solutol: PEG 400: physiological saline was 5:20:20:55.\nHuman gastric cancer cells NCI-N87 were obtained from the Cell Bank of the Type Culture Collection Committee of Chinese Academy of Sciences (cryopreserved in liquid nitrogen in the laboratory).\nNCI-N87 cells were routinely cultured in a RPMI-1640 culture medium containing 10% fetal bovine serum under culture conditions of 37° C. and 5% CO2. The cells were digested with 0.25% trypsin, and passaged according to the cell growth conditions with a passaging ratio of 1:3 to 1:5.\nThe NCI-N87 cells in the logarithmic growth phase were collected, counted and resuspended in a serum-free RPMI-1640 medium, and the cell concentration was adjusted to 5×10^7 cells/mL. The cells were pipetted with a pipette to disperse them evenly, and the cells were put into a 50-mL centrifuge tube, which was placed in an ice box. A 1-mL syringe was used to draw the cell suspension, which was injected subcutaneously into the axilla of the front right limb of a nude mouse. Each animal was inoculated with 100 μL (5×10^6 cells/mouse) to establish an NCI-N87 transplanted tumor model in nude mice. After the inoculation, the animal status and tumor growth were regularly observed, and the tumor diameter was measured using an electronic vernier caliper. The data were input into an Excel spreadsheet to calculate the tumor volume. When the tumor volume reached 100 to 300 mm^3, 72 animals in good health and with similar tumor volumes were selected and divided into 9 groups (n=8) using randomized block method. The day of grouping was regarded as the first day of the assay (D1). After the start of the assay, the tumor diameter was measured twice a week, the tumor volume was calculated, and the animal body weight was also weighed and recorded.\nThe calculation formula of tumor volume (TV) is as follows: […]\nwherein l represents the long diameter of a tumor (mm); and w represents the short diameter of a tumor (mm).\nOn the last day of the assay (D44), the animals were anesthetized using CO2 inhalation 1 hour after administration (R01) and sacrificed, and tumor tissues were collected, weighed, and photographed.\nThe calculation formula of tumor growth inhibition rate TGI (%) is: […]"}, "[2]": {"test_system": "human colorectal cancer HT29 transplanted tumor", "test": "Example 10: tumor growth in HT-29 transplanted tumor model", "format": "in vivo, nude mice", "conditions": "HT-29 model, DDP 5 mg/kg i.p. QW × 3, R01 18 mg/kg i.g. BID × 28", "experimental": "The human colorectal cancer cell lines HT-29 were obtained from the Cell Bank of the Type Culture Collection Committee of Chinese Academy of Sciences (CAS, cryopreserved in liquid nitrogen in this assay).\nHT-29 cells were routinely cultured in a McCoy […] containing 10% fetal bovine serum under culture conditions of 37° C. and 5% CO2. The cells were digested with 0.25% trypsin, and passaged according to the cell growth conditions with a passaging ratio of 1:3 to 1:4.\nOn D1 of the assay, the HT-29 cells in the logarithmic growth phase were collected, counted and resuspended in serum-free McCoy, and the cell concentration was adjusted to 4×10^7 cells/mL. The cells were pipetted with a pipette to disperse them evenly, and the cells were put into a 50-mL centrifuge tube, which was placed in an ice box. A 1-mL syringe was used to draw the cell suspension, which was injected subcutaneously into the axilla of the front right limb of a nude mouse. Each animal was inoculated with 100 μL (4×10^6 cells/mouse) to establish a HT-29 transplanted tumor model in nude mice. After the inoculation, the animal status and tumor growth were regularly observed. On D12, the tumor diameter was measured using an electronic vernier caliper. The data were input into an Excel spreadsheet to calculate the tumor volume. Tumor-bearing mice in good health and with similar tumor volumes (103 to 179 mm^3) were selected and divided into groups using randomized block method. After the start of the assay, the tumor diameter was measured regularly, the tumor volume was calculated, and the animal body weight was also weighed and recorded."}}, "note": "Marks after values point to notes of the source that are not given here.", "data": [{"smiles": "N.N.[Cl][Pt][Cl]", "note": "[DDP, cisplatin]", "values": [{"measurement": "Mean tumor volume", "setting": "[1]; D13", "result": "141 ± 9", "unit": "mm^3"}, {"measurement": "Mean tumor volume", "setting": "[1]; D16", "result": "194 ± 18", "unit": "mm^3"}, {"measurement": "tumor growth inhibition rate", "setting": "[1]; D16", "result": "(36%)"}, {"measurement": "Mean tumor volume", "setting": "[1]; D20", "result": "245 ± 22", "unit": "mm^3"}, {"measurement": "tumor growth inhibition rate", "setting": "[1]; D20", "result": "(37%)"}, {"measurement": "Mean tumor volume", "setting": "[1]; D23", "result": "276 ± 28* mm^3"}, {"measurement": "tumor growth inhibition rate", "setting": "[1]; D23", "result": "(43%)"}, {"measurement": "Mean tumor volume", "setting": "[1]; D27", "result": "351 ± 22** mm^3"}, {"measurement": "tumor growth inhibition rate", "setting": "[1]; D27", "result": "(46%)"}, {"measurement": "Mean tumor volume", "setting": "[1]; D30", "result": "413 ± 27** mm^3"}, {"measurement": "tumor growth inhibition rate", "setting": "[1]; D30", "result": "(51%)"}, {"measurement": "Mean tumor volume", "setting": "[1]; D34", "result": "492 ± 33** mm^3"}, {"measurement": "tumor growth inhibition rate", "setting": "[1]; D34", "result": "(54%)"}, {"measurement": "Mean tumor volume", "setting": "[1]; D37", "result": "580 ± 47** mm^3"}, {"measurement": "tumor growth inhibition rate", "setting": "[1]; D37", "result": "(55%)"}, {"measurement": "Mean tumor volume", "setting": "[1]; D44", "result": "684 ± 45** mm^3"}, {"measurement": "tumor growth inhibition rate", "setting": "[1]; D44", "result": "(56%)"}, {"measurement": "Mean tumor volume ± SE", "setting": "[2]; D 12 (grouping)", "result": "131 ± 8", "unit": "mm^3"}, {"measurement": "Mean tumor volume ± SE", "setting": "[2]; D 15", "result": "178 ± 10", "unit": "mm^3"}, {"measurement": "tumor growth inhibition rate", "setting": "[2]; D 15", "result": "(37%)"}, {"measurement": "Mean tumor volume ± SE", "setting": "[2]; D 19", "result": "263 ± 11** mm^3"}, {"measurement": "tumor growth inhibition rate", "setting": "[2]; D 19", "result": "(48%)"}, {"measurement": "Mean tumor volume ± SE", "setting": "[2]; D 22", "result": "383 ± 25** mm^3"}, {"measurement": "tumor growth inhibition rate", "setting": "[2]; D 22", "result": "(36%)"}, {"measurement": "Mean tumor volume ± SE", "setting": "[2]; D 26", "result": "484 ± 28** mm^3"}, {"measurement": "tumor growth inhibition rate", "setting": "[2]; D 26", "result": "(39%)"}, {"measurement": "Mean tumor volume ± SE", "setting": "[2]; D 29", "result": "582 ± 25** mm^3"}, {"measurement": "tumor growth inhibition rate", "setting": "[2]; D 29", "result": "(44%)"}, {"measurement": "Mean tumor volume ± SE", "setting": "[2]; D 33", "result": "693 ± 34** mm^3"}, {"measurement": "tumor growth inhibition rate", "setting": "[2]; D 33", "result": "(48%)"}, {"measurement": "Mean tumor volume ± SE", "setting": "[2]; D 36", "result": "777 ± 38** mm^3"}, {"measurement": "tumor growth inhibition rate", "setting": "[2]; D 36", "result": "(47%)"}, {"measurement": "Mean tumor volume ± SE", "setting": "[2]; D 40", "result": "896 ± 56** mm^3"}, {"measurement": "tumor growth inhibition rate", "setting": "[2]; D 40", "result": "(45%)"}]}]}
